In patent publication US20250017885A1, “TREATMENT OF INCLUSION BODY MYOSITIS WITH PHENYLBUTYRATE AND MONITORING OF TREATMENT” (University of Kansas, priority 2023, published 2025):

Assays:
[1] = test system: patients with inclusion body myositis; assay: Safety and tolerability of PBA in IBM patients (adverse event reporting, safety laboratory tests); type: in vivo, human; settings: for Serious events not related to the study drug / Serious adverse events related to the study drug / Safety and tolerability / Safety laboratory tests (ALT, creatinine, creatine kinase, blood counts): IBM patients; for Serious adverse events related to the study drug: 3 gm twice daily for 3 months; for Safety and tolerability: 3 gm twice daily orally for 3 months; for Safety laboratory tests (ALT, creatinine, creatine kinase, blood counts): two subjects had mildly elevated liver enzymes at baseline
Procedure: In a study, PBA at a dose of 3 grams (gm) was administered twice daily in patients with inclusion body myositis. In this study, 10 patients received the daily doses of PBA for 3 months after run-up periods of 3 months. […] The study was conducted by monitoring biomarkers and biological indicators in the subjects. One of the biological indicators is mitochondrial membrane potential, and analyzing the biological indicator uses a mitochondrial tracker (e.g., MitoTracker) to monitor mitochondrial membrane potential. […] As such, the biomarkers, including a mitochondrial tracker, allow for monitoring the progress of treatment of IBM in the subject with PBA. Thus, the present invention can use PBA in human subjects to treat inclusion body myositis with a dose of 3 gm twice daily and monitoring biological indicators or other biomarkers to monitor progress of IBM in the subject. Safety and tolerability of PBA in IBM patients were studied, with a run-in period of 3 months without medication. Biomarkers were studied. […] We have previously assayed TDP-43 and its derivative, phosphorylated TDP-43 (pTDP-43) in peripheral blood platelets in our laboratory (Dr. Agbas). TDP43 positive cytoplasmic aggregates have been described in ALS motor neurons and IBM skeletal muscle tissue with significant up-regulation of TARDBP (the gene expresses TDP-43 protein) and SQTM1 (Sequestosome-1) gene expression.14 Therefore, we planned to measure blood-derived platelet total TDP-43 and pTDP-43 as surrogate biomarker for skeletal muscle TDP-43 profile of IBM patients. […] Secondary outcome measures included multiple strength and functional measures: manual muscle testing, timed up and go test (TUG), IBM functional rating scale (IBMFRS), and grip strength. These clinical outcome measures were commonly used in evaluating progression of IBM and in clinical trials of this disease.^18,19,20,21 In addition, safety laboratory tests and electrocardiogram would be monitored regularly. As mentioned above, the biomarkers would be repeated at the end of the treatment period. The PBA was administered orally at 3 gm doses twice a day. […] Mildly elevated liver enzyme reported in two subjects at baseline and before the treatment period. The most common adverse events which were considered related were GI symptoms (n=9). […] The safety lab tests for monitoring purposes include: Liver enzyme (ALT), renal function test (creatinine), muscle enzyme (creatine kinase) and blood counts (including WBC and platelets). For the primary outcome of safety, the frequency of Adverse Events (AEs) and Serious Adverse Events (SAEs) by grade, would be reported. This would be done for each follow-up visit as well as for all visits combined.

[2] = test system: cultured human muscle fibers; settings: Nogalska et al. 2014, cited from earlier work
[3] = AE considered possibly or probably related, 3 gm orally twice a day, 3 months
[4] = AE considered unrelated, at baseline before the treatment period
[5] = gastrointestinal AE considered possibly or probably related, 3 gm orally twice a day, 3 months
[6] = cultured human muscle fibers with experimentally-impaired autophagy
[7] = lysosomal activity-inhibited CHMFs

phenylbutyrate [PBA]
Number of occurrences: Drowsiness [1, 3]: 1
Number of occurrences: Gastrointestinal AEs [1, 3]: 9
Number of occurrences: Hair Loss [1, 3]: 1
Number of occurrences: Musculoskeletal Pain [1, 3]: 2
Number of occurrences: Nasal Congestion [1, 3]: 1
Number of occurrences: Tremor [1, 3]: 1
Number of occurrences: Two Itchy Skin Lesions [1, 3]: 1
Number of subjects: Drowsiness [1, 3]: 1
Number of subjects: Gastrointestinal AEs [1, 3]: 9
Number of subjects: Hair Loss [1, 3]: 1
Number of subjects: Musculoskeletal Pain [1, 3]: 2
Number of subjects: Nasal Congestion [1, 3]: 1
Number of subjects: Tremor [1, 3]: 1
Number of subjects: Two Itchy Skin Lesions [1, 3]: 1
Number of subjects: Hair Loss ([1]; AE considered possibly or probably related, 3 gm orally twice a day, 3 months, listed as study drug): One subject had hair loss which was considered possibly related
Number of occurrences: Back Pain ([1]; AE considered unrelated): 1
Number of occurrences: Chills ([1]; AE considered unrelated): 1
Number of occurrences: Elevated White Blood Count ([1]; AE considered unrelated): 1
Number of occurrences: Elevated blood pressure ([1]; AE considered unrelated): 2
Number of occurrences: Falls ([1]; AE considered unrelated): 9
Number of occurrences: Headache ([1]; AE considered unrelated): 1
Number of occurrences: Low blood pressure ([1]; AE considered unrelated): 1
Number of occurrences: Numbness in the Legs ([1]; AE considered unrelated): 1
Number of occurrences: Right Bundle Branch Block ([1]; AE considered unrelated): 1
Number of occurrences: Urinary Urgency ([1]; AE considered unrelated): 2
Number of subjects: Back Pain ([1]; AE considered unrelated): 1
Number of subjects: Chills ([1]; AE considered unrelated): 1
Number of subjects: Elevated White Blood Count ([1]; AE considered unrelated): 1
Number of subjects: Elevated blood pressure ([1]; AE considered unrelated): 2
Number of subjects: Falls ([1]; AE considered unrelated): 6
Number of subjects: Headache ([1]; AE considered unrelated): 1
Number of subjects: Low blood pressure ([1]; AE considered unrelated): 1
Number of subjects: Numbness in the Legs ([1]; AE considered unrelated): 1
Number of subjects: Right Bundle Branch Block ([1]; AE considered unrelated): 1
Number of subjects: Urinary Urgency ([1]; AE considered unrelated): 2
Number of occurrences: Elevated liver enzymes [1, 4]: 2
Number of subjects: Elevated liver enzymes [1, 4]: 2
Serious events not related to the study drug [1]: the only serious event reported (a fall) was related to the disease itself, not the study drug
Serious adverse events related to the study drug [1]: no serious adverse events related to the study drug were reported
Serious adverse events related to the study drug ([1]; listed as study drug): No study drug-related serious events were reported
Safety and tolerability [1]: safe and well-tolerated
Safety and tolerability ([1]; listed as Phenylbutyrate): safe and well tolerated
Safety and tolerability ([1]; listed as study drug): well tolerated
Serious events not related to the study drug ([1]; listed as study drug): one serious event (a fall that required a hospital visit) that was not related to the study drug
Safety laboratory tests (ALT, creatinine, creatine kinase, blood counts) [1]: indicates safety for the PBA administration
Safety laboratory tests (ALT, creatinine, creatine kinase, blood counts) ([1]; listed as study drug): No other significant laboratory changes were noted
Number of occurrences: Constipation [1, 5]: 1
Number of occurrences: Heartburn [1, 5]: 4
Number of occurrences: Nausea [1, 5]: 2
Number of occurrences: Oral Aphthous [1, 5]: 1
Number of occurrences: Urgency [1, 5]: 1
Number of subjects: Constipation [1, 5]: 1
Number of subjects: Heartburn [1, 5]: 4
Number of subjects: Nausea [1, 5]: 2
Number of subjects: Oral Aphthous [1, 5]: 1
Number of subjects: Urgency [1, 5]: 1
Number of occurrences: Strep. Throat Infection ([1]; human, in vivo): 1
Number of subjects: Strep. Throat Infection ([1]; human, in vivo): 1
Aβ42 and Aβ42 oligomers [2, 6]: decreases Aβ42 and Aβ42 oligomers
Muscle-fiber vacuolization [2, 6]: decreasing their vacuolization
γ-secretase activity [2, 6]: decreases γ-secretase activity
Cathepsins D and B activities [2, 7]: increased cathepsins D and B activities
NBR1, p62 and LC3-II [2, 7]: decrease of NBR1, p62 and LC3-II
